Measured values from patent US7160862B2, “Integrin binding motif containing peptides and methods of treating skeletal diseases” (Acologix, Inc., priority 2000, dated 2007).
Where no end group is shown, it is not given here.

How the values were obtained:
[1] = tested on: calvaria from 4-days-old mice; test: Fetal mouse calvarial assay (mouse calvarial organ culture, histomorphometry of new bone area); format: cell-based; conditions: 7-day organ culture of mouse calvaria halves in BGj medium with 0.1% BSA
Experimental: FGF-1 was purchased from Peprotech Inc. (Rocky Hill, N.J.). RGD-1, 2, 3, 4, 5 and 6 (referred to here as D-00001, D-00002, D-00003, D-00004, D-00005 and D-00006) were provided by Dr. Nomizu (Hokkaido University, Japan).
Pregnant ICR mice were purchased from SLC Japan Co. Ltd. (Shizuoka, Japan).
Mouse calvarial organ culture was performed as described in Mundy G et al. Science 286: 1946–1949, 1999 and Traianedes K et al. Endocrinology 139: 3178–3184, 1998. The calvaria from 4-days-old mice were excised and cut in half along the sagittal suture. Each half of the calvaria was placed on a stainless steel grid in a 12-well tissue culture dish (Asahi Glass Techno Corp., Funabashi, Japan). Each well contained 1.5 ml of BGj medium (Sigma, St. Louis, Mo.) supplemented with 0.1% bovine serum albumin (Sigma) and each compound. FGF-1 was used as a positive control as described by Mundy et al. The medium was changed at day 1 and 4, and the assay was terminated at day 7.
Calvaria was fixed with 10% neutral-buffered formalin, decalcified with 4.13% EDTA and embedded in paraffin. […] sections were made and stained with hematoxylin and eosin. New bone area was measured using Image-Pro Plus (Media Cybernetics, Silver Spring, Md.).

[2] = tested on: calvariae of four week old mice; test: In vivo bone formation study (mouse calvaria growth assay); conditions: for bone area of calvaria sections compared to vehicle treated group: s.c. adjacent to calvariae twice a day for five days, D-00006 20 μg/kg/day, FGF-1 12.5 μg/kg/day, excised 15 days after last administration
Experimental: FGF-1 was purchased from Peprotech Inc. (Rocky Hill, N.J.). RGD-6 (referred to here as D-00006) was synthesized by CS Bio (San Carlos, Calif.) under the instruction of the inventors.
Four week old mice were purchased from SLC Japan Co. Ltd. (Shizuoka, Japan) and randomized to three groups (n=5).
D-00006 (20 μg/kg/day), FGF-1 (12.5 μg/kg/day), or vehicle (saline) was subcutaneously injected into the soft tissues adjacent to the calvariae of the test animals. The daily amount of the samples were divided by two, respectively, and injected twice a day for five days. After 15 days of the last administration, the calvariae were excised and cut in half along the sagittal suture, and provided to the Histomorphometrical analysis.
Calvaria was fixed with 10% neutral-buffered formalin, decalcified with 4.13% EDTA and embedded in paraffin. 4mm-thickness sections were made and stained with hematoxylin and eosin. New bone area was measured using Image-Pro Plus (Media Cybernetics, Silver Spring, Md.).

[3] = tested on: ovariectomized female Sprague-Dawley rats; test: Effect on renal phosphate excretion in ovariectomized rats (serum and urine chemistry); format: in vivo, rat; conditions: Ovx rats, D-00006 20 and 200 μg/kg/day
Excerpt: Forty 3-month old virgin female Sprague-Dawley rats (Harlan Sprague Dawley, Inc.) were acclimated for one week prior to beginning the experiments.
One day prior to the initiation of treatments, the animals were anesthetized with a ketamin/xylazine anesthetic mixture, and animals in groups 2–5 were ovariectomized.
Urine was collected in metabolic cages on Day 41. Blood and urine samples were collected for chemistry and bone turnover markers assays at the end of the 41-day treatment period. Prior to urine and blood collections, the animals were placed in metabolic cages and deprived of food for an overnight fast period of 18 hours. Urine samples were collected and the volumes recorded. The urine samples were then centrifuges at approximately 3000×g for 10 minutes in a refrigerated centrifuge. The samples were filtered to remove contaminating sediments.

Row | Substance | ability to enhance bone growth (new bone area) [1] | bone area of calvaria sections compared to vehicle treated group [2] | efficacy on bone area relative to FGF-1 ([2]; D-00006 20 μg/kg/day vs FGF-1 12.5 μg/kg/day) | serum phosphorus ([3]; 41-day treatment) | total amount of phosphorus in the 18-hour urine collections ([3]; Day 41) | percentage of tubular reabsorption of phosphorus ([3]; derived urine parameter) | phosphate clearance ([3]; derived urine parameter)
1 | ERGDNDISPFSGDGQ (ERGDNDISPFSGDGQ-NH2) [D-00004] | best results | – | – | – | – | – | –
2 | FGF-1: fibroblast growth factor-1 purchased from Peprotech Inc., used as a positive control [reference compound] | – | significant expansion of bone area | – | – | – | – | –
3 | TDLQERGDNDISPFSGDGQPFKD [D-00006] | best results | significant expansion of bone area | equivalent to that of FGF-1 | dose-dependent increase | significant decrease | higher | lower
